What all share (assay type): cell-based, Candida albicans
For assay [1], the system named is C. albicans ATCC 10231 (strain A). Put plainly: MIC determination by in vitro antifungal assay (CLSI broth dilution). The note with it: strain A = C. albicans ATCC 10231, no visible growth, 48 h at 35° C. The method, boiled down: (§1)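 Overnight YPD cultures of yeast were adjusted in RPMI 1640 to OD600 0.12 (˜1×10^6 CFU/mL) and diluted 1:100. The cells were added to serially double-diluted compound (0.06-31.3 μg/mL) in MOPS-buffered RPMI 1640 at pH 7.0. Plates were then incubated at 35° C for 48 h.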

Assay [2] has as its system C. albicans ATCC 90819 (D). Kind of assay: MIC determination by in vitro antifungal assay. Put shortly: as §1
In assay [3] the test system is C. albicans ATCC MYA-1003 (G). Kind of assay: MIC determination by in vitro antifungal assay. The note with it: strain G = C. albicans ATCC MYA-1063(R) (footnote), MYA-1003 in text. Put shortly:
as §1

Assay [4] deals with C. albicans ATCC 64124 (B). Kind of assay: MIC determination by in vitro antifungal assay. The method, boiled down:
as §1

Assay [5] has as its system C. albicans ATCC MYA-1237 (F). Put plainly: MIC determination by in vitro antifungal assay. The note with it: strain F = C. albicans ATCC MYA-1237(R). Put shortly: as §1
Assay [6] concerns C. albicans ATCC MYA-2310 (E). Kind of assay: MIC determination by in vitro antifungal assay. Conditions: strain E = C. albicans ATCC MYA-2310. Put shortly:
as §1

For assay [7], the system named is C. albicans ATCC MYA-2876 (C). Put plainly: MIC determination by in vitro antifungal assay. Conditions: strain C = C. albicans ATCC MYA-2876(S). Put shortly:
as §1

[8] abbreviates: Candida albicans, ATCC10231, 48 h, read-out: MIC.
Setting [9] is: Candida albicans, ATCC90819, strain D = C. albicans ATCC 90819(R), read-out: MIC.
[10] abbreviates: Candida albicans, read-out: MIC.
The mark [11] stands for this setting: Candida albicans, ATCC64124, strain B = C. albicans ATCC 64124, read-out: MIC.

Converted amounts (≈) assume the structure as drawn. Read-outs that look alike come from different tables or passages of the source.

Take `COc1cccc(NNC(=O)c2cnccn2)c1` [Compound 9c]: the MIC was determined as 0.49 µg/mL (≈ 2.01 µM) in assay [1] (setting [8]); 1.95 µg/mL (≈ 7.98 µM) in assay [2] (setting [9]); 0.98 µg/mL (≈ 4.01 µM) in assay [3] (setting [10]); 0.98 µg/mL (≈ 4.01 µM) in assay [4] (setting [11]); 1.95 µg/mL (≈ 7.98 µM) in assay [5] (setting [10]); 1.95 µg/mL (≈ 7.98 µM) in assay [6] (setting [10]). Besides, in assay [7] (setting [10]), the MIC amounted to 1.95 µg/mL (≈ 7.98 µM).
Turning to `O=C(NNc1ccc(F)cc1)c1cnccn1` [Compound 9d], the MIC in assay [1] (setting [8]) amounted to 0.24 µg/mL (≈ 1.03 µM); in assay [2] (setting [9]) it was 0.98 µg/mL (≈ 4.22 µM); in assay [3] (setting [10]) it was 1.95 µg/mL (≈ 8.4 µM); in assay [4] (setting [11]), 1.98 µg/mL (≈ 8.53 µM); in assay [5] (setting [10]), 0.98 µg/mL (≈ 4.22 µM); in assay [6] (setting [10]), 7.8 µg/mL (≈ 33.6 µM). Further, the MIC in assay [7] (setting [10]) is 7.8 µg/mL (≈ 33.6 µM).
For the molecule `O=C(NNc1ccc(Cl)cc1)c1cnccn1` [Compound 9e], the MIC was determined as 0.98 μg/mL^−1 in assay [1]; 0.98 μg/mL^−1 in assay [2] (strain D = C. albicans ATCC 90819(R)); 1.95 μg/mL^−1 in assay [3]; 1.95 μg/mL^−1 in assay [4] (strain B = C. albicans ATCC 64124); 0.98 μg/mL^−1 in assay [5]; 1.95 μg/mL^−1 in assay [6]. In addition, in assay [7], the MIC was found to be 3.9 μg/mL^−1.
Turning to `COc1ccc(NNC(=O)c2cnccn2)cc1` [Compound 9f], the MIC in assay [1] (setting [8]) turned out to be 0.49 µg/mL (≈ 2.01 µM); in assay [2] (setting [9]) it was 0.98 µg/mL (≈ 4.01 µM); in assay [3] (setting [10]), 1.95 µg/mL (≈ 7.98 µM); in assay [4] (setting [11]), 0.98 µg/mL (≈ 4.01 µM); in assay [5] (setting [10]), 0.98 µg/mL (≈ 4.01 µM); in assay [6] (setting [10]), 1.95 µg/mL (≈ 7.98 µM). The MIC in assay [7] (setting [10]) worked out at 1.95 µg/mL (≈ 7.98 µM).
With `O=C(NNc1ccc(F)cc1F)c1cnccn1` [Compound 9g], the MIC in assay [1] (setting [8]) was 0.24 µg/mL (≈ 0.959 µM); in assay [2] (setting [9]), 0.98 µg/mL (≈ 3.92 µM); in assay [3] (setting [10]), 0.49 µg/mL (≈ 1.96 µM); in assay [4] (setting [11]) it was 0.98 µg/mL (≈ 3.92 µM); in assay [5] (setting [10]) it was 0.49 µg/mL (≈ 1.96 µM); in assay [6] (setting [10]) it was 3.9 µg/mL (≈ 15.6 µM). In addition, the MIC in assay [7] (setting [10]) is 0.98 µg/mL (≈ 3.92 µM).
For `O=C(NNc1cc(F)ccc1F)c1cnccn1` [Compound 9h], the MIC in assay [1] (setting [8]) is 0.24 µg/mL (≈ 0.959 µM); in assay [2] (setting [9]) it was 3.9 µg/mL (≈ 15.6 µM); in assay [3] (setting [10]) it was 1.95 µg/mL (≈ 7.79 µM); in assay [4] (setting [11]), 7.8 µg/mL (≈ 31.2 µM); in assay [5] (setting [10]) it was 3.9 µg/mL (≈ 15.6 µM); in assay [6] (setting [10]), more than 31.3 µg/mL. The MIC in assay [7] (setting [10]) was 3.9 µg/mL (≈ 15.6 µM).
Regarding `O=C(NNc1cc(F)cc(F)c1)c1cnccn1` [Compound 9i], the MIC in assay [1] (setting [8]) amounted to 0.24 µg/mL (≈ 0.959 µM); in assay [2] (setting [9]) it was 3.9 µg/mL (≈ 15.6 µM); in assay [3] (setting [10]), 1.95 µg/mL (≈ 7.79 µM); in assay [4] (setting [11]), 3.9 µg/mL (≈ 15.6 µM); in assay [5] (setting [10]) it was 1.95 µg/mL (≈ 7.79 µM); in assay [6] (setting [10]), 15.6 µg/mL (≈ 62.3 µM). In assay [7] (setting [10]), the MIC was 7.8 µg/mL (≈ 31.2 µM).
Regarding `O=C(NNc1cc(Cl)cc(Cl)c1)c1cnccn1` [Compound 9j], the MIC in assay [1] (setting [8]) came to 0.49 µg/mL (≈ 1.73 µM); in assay [2] (setting [9]) it was 1.95 µg/mL (≈ 6.89 µM); in assay [3] (setting [10]), 3.9 µg/mL (≈ 13.8 µM); in assay [4] (setting [11]), 3.9 µg/mL (≈ 13.8 µM); in assay [5] (setting [10]) it was 1.95 µg/mL (≈ 6.89 µM); in assay [6] (setting [10]) it was 7.8 µg/mL (≈ 27.6 µM). Also, the MIC in assay [7] (setting [10]) came to 3.9 µg/mL (≈ 13.8 µM).

Source of the values: US20240425464A1, “Substituted Monohydrazides as Potent Antifungal Agents” (University of Kentucky Research Foundation, priority 2023, published 2024).
